# Assay results taken from US9670142B2, “1,3-diaminocyclopentane carboxamide derivatives” (Merck Patent GmbH, priority 2013, dated 2017).
# Biological target: human fatty acid synthase FASN (Homo sapiens (Human), UniProt P49327)
# Assay: Biochemical activity testing of human fatty acid synthase FASN (NADPH fluorescence intensity enzyme assay)
# Conditions: human recombinant full-length fatty acid synthase
# How it was run: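 In-house Sf9-expressed full-length enzyme (3 μL of 40 nM) in 50 mM potassium phosphate pH 7.0 with glutathione, BSA and Tween-20, plus NADPH (2 μL of 200 μM), preincubated ≥15 min with compound (10 concentrations from 30 μM final, 1% DMSO). Acetyl-CoA/malonyl-CoA added; NADPH fluorescence (ex 340/em 460 nm) read before and after 30 min at room temperature, difference used for IC50.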
# Chain of human fatty acid synthase FASN (P49327 whole entry): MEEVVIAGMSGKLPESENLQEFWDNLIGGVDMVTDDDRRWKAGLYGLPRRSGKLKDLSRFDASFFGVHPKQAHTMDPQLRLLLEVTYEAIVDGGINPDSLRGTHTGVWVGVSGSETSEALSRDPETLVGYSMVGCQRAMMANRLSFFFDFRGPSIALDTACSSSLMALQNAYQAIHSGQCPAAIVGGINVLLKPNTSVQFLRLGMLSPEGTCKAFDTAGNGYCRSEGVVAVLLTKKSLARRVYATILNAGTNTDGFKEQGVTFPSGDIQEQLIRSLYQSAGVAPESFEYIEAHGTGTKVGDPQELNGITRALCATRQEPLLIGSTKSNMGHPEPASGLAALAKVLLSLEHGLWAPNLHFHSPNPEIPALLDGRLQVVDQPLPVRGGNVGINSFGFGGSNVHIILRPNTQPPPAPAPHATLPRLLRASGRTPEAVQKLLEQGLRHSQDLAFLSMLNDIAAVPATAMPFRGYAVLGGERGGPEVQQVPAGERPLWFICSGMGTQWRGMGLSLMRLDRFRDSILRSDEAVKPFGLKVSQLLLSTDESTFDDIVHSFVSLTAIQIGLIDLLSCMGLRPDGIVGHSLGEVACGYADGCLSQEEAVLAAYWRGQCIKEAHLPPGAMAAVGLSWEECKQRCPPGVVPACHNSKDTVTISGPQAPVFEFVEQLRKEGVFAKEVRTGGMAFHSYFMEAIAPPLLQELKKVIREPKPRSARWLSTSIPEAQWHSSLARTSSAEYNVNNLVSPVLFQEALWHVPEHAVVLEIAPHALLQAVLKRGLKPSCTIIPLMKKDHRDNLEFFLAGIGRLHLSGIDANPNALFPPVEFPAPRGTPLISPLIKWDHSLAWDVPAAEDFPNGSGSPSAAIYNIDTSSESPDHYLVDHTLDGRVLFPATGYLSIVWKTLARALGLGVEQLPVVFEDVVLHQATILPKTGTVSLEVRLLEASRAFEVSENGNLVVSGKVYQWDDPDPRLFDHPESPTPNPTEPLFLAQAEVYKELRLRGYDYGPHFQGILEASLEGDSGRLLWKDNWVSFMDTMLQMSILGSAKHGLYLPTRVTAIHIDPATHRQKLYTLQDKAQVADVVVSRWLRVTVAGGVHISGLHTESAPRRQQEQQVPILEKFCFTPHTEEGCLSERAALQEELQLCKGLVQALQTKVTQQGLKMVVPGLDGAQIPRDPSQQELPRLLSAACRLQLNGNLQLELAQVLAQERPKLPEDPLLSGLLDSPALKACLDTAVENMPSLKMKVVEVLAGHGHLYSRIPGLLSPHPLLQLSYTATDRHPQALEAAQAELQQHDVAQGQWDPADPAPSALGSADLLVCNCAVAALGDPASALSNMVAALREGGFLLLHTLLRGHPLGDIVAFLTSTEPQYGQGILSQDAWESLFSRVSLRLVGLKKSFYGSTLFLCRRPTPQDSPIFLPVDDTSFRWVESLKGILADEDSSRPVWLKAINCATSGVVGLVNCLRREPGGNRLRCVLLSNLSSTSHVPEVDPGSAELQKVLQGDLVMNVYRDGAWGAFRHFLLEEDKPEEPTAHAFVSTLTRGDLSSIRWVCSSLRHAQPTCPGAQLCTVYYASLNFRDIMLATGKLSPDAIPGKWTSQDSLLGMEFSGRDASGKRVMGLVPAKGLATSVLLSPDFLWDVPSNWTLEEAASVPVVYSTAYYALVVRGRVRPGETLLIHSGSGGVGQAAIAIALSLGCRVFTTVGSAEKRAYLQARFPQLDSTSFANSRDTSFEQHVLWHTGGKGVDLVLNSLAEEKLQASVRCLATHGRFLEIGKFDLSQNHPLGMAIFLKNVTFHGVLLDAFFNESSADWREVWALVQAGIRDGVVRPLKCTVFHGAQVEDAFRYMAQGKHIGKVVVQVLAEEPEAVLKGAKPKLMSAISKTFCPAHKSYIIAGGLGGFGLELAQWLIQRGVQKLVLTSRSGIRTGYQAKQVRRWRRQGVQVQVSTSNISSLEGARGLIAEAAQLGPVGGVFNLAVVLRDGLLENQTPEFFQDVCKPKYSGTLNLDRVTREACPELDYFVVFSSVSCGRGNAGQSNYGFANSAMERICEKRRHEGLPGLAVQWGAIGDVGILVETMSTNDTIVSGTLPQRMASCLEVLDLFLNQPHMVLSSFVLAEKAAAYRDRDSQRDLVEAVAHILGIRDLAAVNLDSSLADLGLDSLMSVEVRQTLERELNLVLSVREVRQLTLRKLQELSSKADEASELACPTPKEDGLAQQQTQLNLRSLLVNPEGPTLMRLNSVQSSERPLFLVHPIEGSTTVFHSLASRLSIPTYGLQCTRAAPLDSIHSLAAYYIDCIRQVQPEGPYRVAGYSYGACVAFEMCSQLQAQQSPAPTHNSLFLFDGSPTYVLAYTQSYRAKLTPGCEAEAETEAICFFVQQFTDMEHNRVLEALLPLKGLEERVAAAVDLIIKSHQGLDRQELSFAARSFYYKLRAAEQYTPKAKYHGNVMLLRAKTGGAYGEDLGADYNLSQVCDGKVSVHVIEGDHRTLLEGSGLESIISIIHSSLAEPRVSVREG
row,IC50,Compound
1,< 300 nM,"CCC(=O)N[C@H]1CC[C@@H](N(C)C(=O)c2ccc(-c3ccc4[nH]ccc4c3)nn2)C1 [Compound A113, 6-(1H-indol-5-yl)-pyridazine-3-carboxylic acid methyl-((1R,3S)-3-propionylamino-cyclopentyl)-amide]"
2,< 300 nM,"CCC(=O)N[C@H]1CC[C@@H](N(C)C(=O)c2ccc(-c3ccc4c(ccn4C)c3)c(C)c2)C1 [Compound A114, 3,N-dimethyl-4-(1-methyl-1H-indol-5-yl)-N-((1R,3S)-3-propionylamino-cyclopentyl)-benzamide]"
3,< 300 nM,"CCC(=O)N[C@H]1CC[C@@H](N(C)C(=O)c2ccc(-c3ccc4[nH]cc(C)c4c3)cc2)C1 [Compound A115, N-methyl-4-(3-methyl-1H-indol-5-yl)-N-((1R,3S)-3-propionylamino-cyclopentyl)-benzamide]"
4,< 300 nM,"CCC(=O)N[C@H]1CC[C@@H](N(C)C(=O)c2ccc(-c3ccc4[nH]ccc4c3F)cc2)C1 [Compound A116, 4-(4-fluoro-1H-indol-5-yl)-N-methyl-N-((1R,3S)-3-propionylamino-cyclopentyl)-benzamide]"
5,< 300 nM,"CCC(=O)N[C@H]1CC[C@@H](N(C)C(=O)c2ccc(-c3ccc4[nH]ccc4c3)nc2)C1 [Compound A117, 6-(1H-indol-5-yl)-N-methyl-N-((1R,3S)-3-propionylamino-cyclopentyl)-nicotinamide]"
6,< 300 nM,"CCC(=O)N[C@H]1CC[C@@H](N(C)C(=O)c2ccc(-c3ccc4c(ccn4C)c3)nn2)C1 [Compound A118, 6-(1-methyl-1H-indol-5-yl)-pyridazine-3-carboxylic acid methyl-((1R,3S)-3-propionylamino-cyclopentyl)-amide]"
7,< 300 nM,"CCC(=O)N[C@H]1CC[C@@H](N(C)C(=O)c2ccc(-c3ccc4c(ccn4C)c3)cc2C)C1 [Compound A119, 2,N-dimethyl-4-(1-methyl-1H-indol-5-yl)-N-((1R,3S)-3-propionylamino-cyclopentyl)-benzamide]"
8,< 300 nM,"CCC(=O)N[C@H]1CC[C@@H](N(C)C(=O)c2ccc(-c3ccc4[nH]ccc4c3)cc2C)C1 [Compound A120, 4-(1H-indol-5-yl)-2,N-dimethyl-N-((1R,3S)-3-propionylamino-cyclopentyl)-benzamide]"
9,< 300 nM,"CCC(=O)N[C@H]1CC[C@@H](N(C)C(=O)c2ccc(-c3cc(F)c4[nH]ccc4c3)cc2)C1 [Compound A121, 4-(7-fluoro-1H-indol-5-yl)-N-methyl-N-((1R,3S)-3-propionylamino-cyclopentyl)-benzamide]"
10,< 300 nM,"CCC(=O)N[C@H]1CC[C@@H](N(C)C(=O)c2ccc(-c3cc4cc[nH]c4cc3F)cc2)C1 [Compound A122, 4-(6-fluoro-1H-indol-5-yl)-N-methyl-N-((1R,3S)-3-propionylamino-cyclopentyl)-benzamide]"
11,< 300 nM,"CCC(=O)N[C@H]1CC[C@@H](N(C)C(=O)c2ccc(-c3nc4ccccc4n3C)cc2)C1 [Compound A123, N-methyl-4-(1-methyl-1H-benzimidazol-2-yl)-N-((1R,3S)-3-propionylamino-cyclopentyl)-benzamide]"
12,< 300 nM,"CCC(=O)N[C@H]1CC[C@@H](N(C)C(=O)c2ccc(-c3ccc4[nH]ncc4c3C)c(C)c2)C1 [Compound A124, 3,N-dimethyl-4-(4-methyl-1H-indazol-5-yl)-N-((1R,3S)-3-propionylamino-cyclopentyl)-benzamide]"
13,< 300 nM,"CCC(=O)N[C@H]1CC[C@@H](N(C)C(=O)c2cnc(-c3ccc4c(ccn4C)c3)cn2)C1 [Compound A125, 5-(1-methyl-1H-indol-5-yl)-pyrazine-2-carboxylic acid methyl-((1R,3S)-3-propionylamino-cyclopentyl)-amide]"
14,< 300 nM,"CCC(=O)N[C@H]1CC[C@@H](N(C)C(=O)c2ccc(-c3ccc4[nH]ncc4c3C)cc2)C1 [Compound A126, N-methyl-4-(4-methyl-1H-indazol-5-yl)-N-((1R,3S)-3-propionylamino-cyclopentyl)-benzamide]"
15,< 300 nM,"CCC(=O)N[C@H]1CC[C@@H](N(C)C(=O)c2ccc(-c3nc4ccc(F)cc4o3)cc2)C1 [Compound A127, 4-(6-fluoro-benzoxazol-2-yl)-N-methyl-N-((1R,3S)-3-propionylamino-cyclopentyl)-benzamide]"
16,< 300 nM,"CCC(=O)N[C@H]1CC[C@@H](N(C)C(=O)c2ccc(-c3nc4ccc(Cl)cc4o3)cc2)C1 [Compound A128, 4-(6-chloro-benzoxazol-2-yl)-N-methyl-N-((1R,3S)-3-propionylamino-cyclopentyl)-benzamide]"
17,< 300 nM,"CCC(=O)N[C@H]1CC[C@@H](N(C)C(=O)c2ccc(-c3ccc4[nH]ccc4n3)cc2)C1 [Compound A129, N-methyl-N-((1R,3S)-3-propionylamino-cyclopentyl)-4-(1H-pyrrolo[3,2-b]pyridin-5-yl)-benzamide]"

row,IC50,Compound
1,< 300 nM,"CCC(=O)N[C@H]1CC[C@@H](N(C)C(=O)c2ccc(-c3ccc4[nH]cc(CN)c4c3)cc2)C1 [Compound A130, 4-(3-aminomethyl-1H-indol-5-yl)-N-methyl-N-((1R,3S)-3-propionylamino-cyclopentyl)-benzamide]"
2,< 300 nM,"CCC(=O)N[C@H]1CC[C@@H](N(C)C(=O)c2ncc(-c3ccc4[nH]ccc4c3)cn2)C1 [Compound A131, 5-(1H-indol-5-yl)-pyrimidine-2-carboxylic acid methyl-((1R,3S)-3-propionylamino-cyclopentyl)-amide]"
3,< 300 nM,"CCC(=O)N[C@H]1CC[C@@H](N(C)C(=O)c2cnc(-c3ccc4[nH]ccc4c3)cn2)C1 [Compound A132, 5-(1H-indol-5-yl)-pyrazine-2-carboxylic acid methyl-((1R,3S)-3-propionylamino-cyclopentyl)-amide]"
4,< 300 nM,"CCC(=O)N[C@H]1CC[C@@H](N(C)C(=O)c2ncc(-c3ccc4c(ccn4C)c3)cn2)C1 [Compound A133, 5-(1-methyl-1H-indol-5-yl)-pyrimidine-2-carboxylic acid methyl-((1R,3S)-3-propionylamino-cyclopentyl)-amide]"
5,300 to 3000 nM,"CCC(=O)N[C@H]1CC[C@@H](N(C)C(=O)c2ccc(-c3cc(F)c4[nH]ccc4c3)nc2)C1 [Compound A134, 6-(7-fluoro-1H-indol-5-yl)-N-methyl-N-((1R,3S)-3-propionylamino-cyclopentyl)-nicotinamide]"
6,< 300 nM,"CCC(=O)N[C@H]1CC[C@@H](N(C)C(=O)c2ccc(-c3ccc4[nH]ccc4c3F)nc2)C1 [Compound A135, 6-(4-fluoro-1H-indol-5-yl)-N-methyl-N-((1R,3S)-3-propionylamino-cyclopentyl)-nicotinamide]"
7,300 to 3000 nM,"CCC(=O)N[C@H]1CC[C@@H](N(C)C(=O)c2ccc(-c3cc(F)c4[nH]ccc4c3)nn2)C1 [Compound A136, 6-(7-fluoro-1H-indol-5-yl)-pyridazine-3-carboxylic acid methyl-((1R,3S)-3-propionylamino-cyclopentyl)-amide]"
8,< 300 nM,"CCC(=O)N[C@H]1CC[C@@H](N(C)C(=O)c2ccc(-c3ccc4[nH]ccc4c3F)nn2)C1 [Compound A137, 6-(4-fluoro-1H-indol-5-yl)-pyridazine-3-carboxylic acid methyl-((1R,3S)-3-propionylamino-cyclopentyl)-amide]"
9,< 300 nM,"CN(C(=O)c1ccc(-c2nc3ccc(Cl)cc3o2)cc1)[C@@H]1CC[C@H](NC(=O)[C@@H]2CCCO2)C1 [Compound A138, (S)-tetrahydro-furan-2-carboxylic acid ((1S,3R)-3-{[4-(6-chloro-benzooxazol-2-yl)-benzoyl]-methyl-amino}-cyclopentyl)-amide]"
10,< 300 nM,"CCC(=O)N[C@H]1CC[C@@H](N(C)C(=O)c2cnc(-c3ccc4[nH]ccc4c3)nc2)C1 [Compound A139, 2-(1H-indol-5-yl)-pyrimidine-5-carboxylic acid methyl-((1R,3S)-3-propionylamino-cyclopentyl)-amide]"
11,< 300 nM,"CCC(=O)N[C@H]1CC[C@@H](N(C)C(=O)c2cnc(-c3ccc4[nH]ccc4c3)c(F)c2)C1 [Compound A140, 5-fluoro-6-(1H-indol-5-yl)-N-methyl-N-((1R,3S)-3-propionylamino-cyclopentyl)-nicotinamide]"
12,300 to 3000 nM,"CCC(=O)N[C@H]1CC[C@@H](N(C)C(=O)c2cnc(-c3cc(F)c4[nH]ccc4c3)cc2C)C1 [Compound A141, 6-(7-fluoro-1H-indol-5-yl)-4,N-dimethyl-N-((1R,3S)-3-propionylamino-cyclopentyl)-nicotinamide]"
13,300 to 3000 nM,"CCC(=O)N[C@H]1CC[C@@H](N(C)C(=O)c2cnc(-c3cc(F)c4[nH]ccc4c3)c(F)c2)C1 [Compound A142, 5-fluoro-6-(7-fluoro-1H-indol-5-yl)-N-methyl-N-((1R,3S)-3-propionylamino-cyclopentyl)-nicotinamide]"
14,< 300 nM,"CCC(=O)N[C@H]1CC[C@@H](N(C)C(=O)c2cnc(-c3ccc4[nH]ccc4c3F)c(F)c2)C1 [Compound A143, 5-fluoro-6-(4-fluoro-1H-indol-5-yl)-N-methyl-N-((1R,3S)-3-propionylamino-cyclopentyl)-nicotinamide]"
15,< 300 nM,"CCC(=O)N[C@H]1CC[C@@H](N(C)C(=O)c2ccc(-c3ccc4nccn4c3)nc2)C1 [Compound A144, 6-imidazo[1,2-a]pyridin-6-yl-N-methyl-N-((1R,3S)-3-propionylamino-cyclopentyl)-nicotinamide]"
16,300 to 3000 nM,"CCC(=O)N[C@H]1CC[C@@H](N(C)C(=O)c2ccc(-c3cc(F)c4c(c3)CCN4)nc2)C1 [Compound A145, 6-(7-fluoro-2,3-dihydro-1H-indol-5-yl)-N-methyl-N-((1R,3S)-3-propionylamino-cyclopentyl)-nicotinamide]"
17,< 300 nM,"CCC(=O)N[C@H]1CC[C@@H](N(C)C(=O)c2cnc(-c3ccc4[nH]ccc4c3F)cc2C)C1 [Compound A146, 6-(4-fluoro-1H-indol-5-yl)-4,N-dimethyl-N-((1R,3S)-3-propionylamino-cyclopentyl)-nicotinamide]"
